Data taken from patent publication US20140135310A1, “SULPHONAMIDE DERIVATIVES OF ALICYCLIC AMINES FOR THE TREATMENT OF CENTRAL NERVOUS SYSTEM DISEASES” (Adamed Sp. z o.o., priority 2011, published 2014).

Tests used:
[1] = target: dopaminergic receptors D2 (Homo sapiens, UniProt P14416); assay: Radioligand binding assay, dopaminergic D2 receptors; conditions: binding assay, test compound 1×10^−6 M
Text: (§1) The specific ligand binding to the receptors is defined as the difference between the total binding and the non-specific binding determined in the presence of the excess of unlabelled ligand.
(§2) The results are expressed as a percent of control specific binding ((measured specific binding/control specific binding)×100) and as a percent inhibition of control specific binding (100−((measured specific binding/control specific binding)×100)) obtained in the presence of the test compounds. The specific ligand binding to the receptors is defined as the difference between the total binding and the nonspecific binding determined in the presence of an excess of unlabelled ligand. Scintillation counting was the method of detection of ligand binding. The IC50 values (concentration causing a half-maximal inhibition of control specific binding) were determined by non-linear regression analysis of the competition curves generated with mean replicate values using Hill equation curve fitting (Y=D+[(A−D)/(1+(C/C50)nH)], where Y=specific binding, D=minimum specific binding, A=maximum specific binding, C=compound concentration, C50=IC50, and nH=slope factor). This analysis was performed using a software developed at Cerep (Hill software) and validated by comparison with data generated by the commercial software SigmaPlot® 4.0 for Windows® (© 1997 by SPSS Inc.). The inhibition constants (Ki) were calculated using the Cheng Prusoff equation (Ki=IC50/(1+(L/KD)), where L=concentration of radioligand in the assay, and KD=affinity of the radioligand for the receptor). A scatchard plot was used to determine the Kd.
(§3) Experimental conditions for tests are given in Table 1, the results of tests for representative compounds are given in Tables 2a and 2b (receptors D2 and D3) and in Table 3 (receptors D4).

[2] = target: dopaminergic receptors D3 (Homo sapiens, UniProt P35462); assay: Radioligand binding assay, dopaminergic D3 receptors; conditions: test compound 1×10^−6 M
Text: as §1, §2, §3

[3] = target: T1, 5-HT1A receptor (rat hippocampus) (Rattus norvegicus, UniProt P19327); assay: Radioligand binding assay, serotoninergic 5-HT1A receptors; conditions: binding assay result in %, Table 5a;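 note: test compound at 1 µM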
T1 construct: hippocampus; from tissue; host or cells: rat hippocampus
T1 sequence (P19327 1-422): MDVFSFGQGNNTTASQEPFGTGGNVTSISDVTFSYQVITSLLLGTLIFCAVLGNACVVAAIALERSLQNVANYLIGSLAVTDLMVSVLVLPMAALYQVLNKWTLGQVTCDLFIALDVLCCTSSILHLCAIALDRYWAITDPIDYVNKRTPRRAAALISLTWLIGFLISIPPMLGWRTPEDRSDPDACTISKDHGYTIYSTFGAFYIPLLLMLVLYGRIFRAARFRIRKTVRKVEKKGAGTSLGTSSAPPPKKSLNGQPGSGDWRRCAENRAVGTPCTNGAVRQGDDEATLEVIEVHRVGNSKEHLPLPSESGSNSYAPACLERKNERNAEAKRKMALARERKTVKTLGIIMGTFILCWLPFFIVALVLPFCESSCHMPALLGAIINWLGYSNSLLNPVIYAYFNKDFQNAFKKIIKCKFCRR
Text: as §1, §2
(§4) Experimental conditions for tests are given in Table 4, and results of tests for representative compounds of the invention are given in Table 5a and 5b (receptors 5-HT1A, 5-HT2A, 5-HT6 and 5-HT7) and in Table 6 (receptors 5-HT2C).

5-HT2A receptor = target: T2, 5-HT2A receptor (Homo sapiens, UniProt P28223); assay: Radioligand binding assay, serotoninergic 5-HT2A receptors; conditions: binding assay result in %, Table 5a
T2 construct: purchased PerkinElmer
Text: as §1, §2
5-HT2A: Bryan L. Roth. Assay Protocol Book. University of North Carolina At Chapel Hill. National Institute of Mental Health. Psychoactive Drug Screening Program. Available on-line at 31 Aug. 2008: http://pdsp.med.unc.edu/UNC-CH%20Protocol%20Book.pdf

5-HT6 receptor = target: T3, 5-HT6 receptor (Homo sapiens, UniProt P50406); assay: Radioligand binding assay, serotoninergic 5-HT6 receptors; conditions: binding assay result in %, Table 5a;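 note: test compound at 1 µM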
T3 construct: purchased PerkinElmer
Text: as §1, §2, §4
5-HT6: Bryan L. Roth. Assay Protocol Book. University of North Carolina At Chapel Hill. National Institute of Mental Health. Psychoactive Drug Screening Program. Available on-line at 31 Aug. 2008: http://pdsp.med.unc.edu/UNC-CH %20Protocol%20Book.pdf

5-HT7 receptor = target: T4, 5-HT7 receptor (Homo sapiens, UniProt P34969); assay: Radioligand binding assay, serotoninergic 5-HT7 receptors; conditions: binding assay result in %, Table 5a;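 note: test compound at 1 µM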
T4 construct: purchased PerkinElmer
Text: as §1, §2, §4
5-HT7: Bryan L. Roth. Assay Protocol Book. University of North Carolina At Chapel Hill. National Institute of Mental Health. Psychoactive Drug Screening Program. Available on-line at 31 Aug. 2008: http://pdsp.med.unc.edu/UNC-CH %20Protocol%20Book.pdf

[4] = system: α1 adrenergic receptors (rat cerebral cortex); assay: Radioligand binding assay, adrenergic α1 receptors; conditions: test compound 1×10^−6 M
Text: as §1
as §2, with “This analysis was performed using a software developed at Cerep (Hill software) and validated by comparison with data generated by the commercial software SigmaPlot® 4.0 for Windows® (© 1997 by SPSS Inc.).” left out

[5] = target: T5, serotonin transporter (SERT) (Homo sapiens, UniProt P31645); assay: Radioligand binding assay, serotonin transporter (SERT); conditions: binding assay, test compound 1×10^−6 M
T5 construct: expressed in transfected cells; host or cells: CHO cells
Text: as §1, §2
Experimental conditions for tests are given in Table 12, and results of tests for representative compounds are given in Tables 13a and 13b.

dopaminergic receptors D3, sequence (P35462 whole entry): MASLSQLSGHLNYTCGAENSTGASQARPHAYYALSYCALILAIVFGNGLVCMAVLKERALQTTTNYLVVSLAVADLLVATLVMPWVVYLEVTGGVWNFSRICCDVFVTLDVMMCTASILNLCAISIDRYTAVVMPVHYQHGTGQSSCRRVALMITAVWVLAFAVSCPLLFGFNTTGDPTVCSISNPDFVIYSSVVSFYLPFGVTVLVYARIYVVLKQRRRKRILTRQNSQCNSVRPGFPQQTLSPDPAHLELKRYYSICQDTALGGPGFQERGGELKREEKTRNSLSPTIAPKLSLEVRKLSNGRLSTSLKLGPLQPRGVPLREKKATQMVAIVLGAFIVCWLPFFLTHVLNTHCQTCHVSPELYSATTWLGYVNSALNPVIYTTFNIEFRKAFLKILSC
T4 sequence (P34969 whole entry): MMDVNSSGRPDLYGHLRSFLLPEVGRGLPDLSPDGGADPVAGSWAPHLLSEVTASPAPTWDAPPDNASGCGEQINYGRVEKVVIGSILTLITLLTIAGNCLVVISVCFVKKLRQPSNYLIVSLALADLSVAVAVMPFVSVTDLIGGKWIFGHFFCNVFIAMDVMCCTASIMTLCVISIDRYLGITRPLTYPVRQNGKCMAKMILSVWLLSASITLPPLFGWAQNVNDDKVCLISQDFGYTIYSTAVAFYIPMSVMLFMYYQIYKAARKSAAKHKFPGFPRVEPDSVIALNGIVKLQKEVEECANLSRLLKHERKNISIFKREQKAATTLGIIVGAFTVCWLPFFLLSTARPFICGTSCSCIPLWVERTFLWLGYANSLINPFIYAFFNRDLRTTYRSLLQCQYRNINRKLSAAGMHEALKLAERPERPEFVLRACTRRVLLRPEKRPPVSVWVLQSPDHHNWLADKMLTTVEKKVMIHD
dopaminergic receptors D2, sequence (P14416 whole entry): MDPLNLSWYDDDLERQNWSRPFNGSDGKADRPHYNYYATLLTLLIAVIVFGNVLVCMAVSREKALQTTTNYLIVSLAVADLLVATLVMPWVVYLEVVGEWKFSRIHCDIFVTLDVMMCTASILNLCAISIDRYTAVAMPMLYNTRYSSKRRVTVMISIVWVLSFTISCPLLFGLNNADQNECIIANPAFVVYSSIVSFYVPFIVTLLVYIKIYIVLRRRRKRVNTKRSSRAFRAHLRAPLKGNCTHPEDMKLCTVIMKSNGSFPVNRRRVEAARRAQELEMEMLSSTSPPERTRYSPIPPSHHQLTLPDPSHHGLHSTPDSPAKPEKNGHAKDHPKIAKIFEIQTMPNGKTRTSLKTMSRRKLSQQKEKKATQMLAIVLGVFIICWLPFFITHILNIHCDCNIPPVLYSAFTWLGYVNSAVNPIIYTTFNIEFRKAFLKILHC
T2 sequence (P28223 whole entry): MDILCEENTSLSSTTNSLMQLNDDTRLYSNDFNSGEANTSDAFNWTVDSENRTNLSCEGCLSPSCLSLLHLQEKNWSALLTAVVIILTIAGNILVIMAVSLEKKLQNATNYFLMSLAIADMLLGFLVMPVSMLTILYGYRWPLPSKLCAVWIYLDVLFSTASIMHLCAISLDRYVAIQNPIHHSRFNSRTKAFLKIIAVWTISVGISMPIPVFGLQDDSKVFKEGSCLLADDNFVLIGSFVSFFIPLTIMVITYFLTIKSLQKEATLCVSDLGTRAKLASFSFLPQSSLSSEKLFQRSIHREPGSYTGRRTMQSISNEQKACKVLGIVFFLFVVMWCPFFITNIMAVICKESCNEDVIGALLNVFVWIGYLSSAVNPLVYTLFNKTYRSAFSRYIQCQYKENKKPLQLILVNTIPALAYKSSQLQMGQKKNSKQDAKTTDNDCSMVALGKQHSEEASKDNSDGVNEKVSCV
T3 sequence (P50406 whole entry): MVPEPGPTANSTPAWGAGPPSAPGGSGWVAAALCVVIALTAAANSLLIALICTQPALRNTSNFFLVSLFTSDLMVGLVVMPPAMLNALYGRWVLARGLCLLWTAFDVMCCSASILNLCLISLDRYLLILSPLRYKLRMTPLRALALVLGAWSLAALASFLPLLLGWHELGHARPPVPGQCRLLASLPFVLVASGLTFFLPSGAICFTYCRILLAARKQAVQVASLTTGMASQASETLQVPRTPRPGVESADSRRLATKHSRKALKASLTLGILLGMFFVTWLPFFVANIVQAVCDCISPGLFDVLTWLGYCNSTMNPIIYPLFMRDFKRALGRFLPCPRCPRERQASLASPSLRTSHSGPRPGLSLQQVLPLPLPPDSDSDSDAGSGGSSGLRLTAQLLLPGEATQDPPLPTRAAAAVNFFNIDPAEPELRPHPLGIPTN
T5 sequence (P31645 whole entry): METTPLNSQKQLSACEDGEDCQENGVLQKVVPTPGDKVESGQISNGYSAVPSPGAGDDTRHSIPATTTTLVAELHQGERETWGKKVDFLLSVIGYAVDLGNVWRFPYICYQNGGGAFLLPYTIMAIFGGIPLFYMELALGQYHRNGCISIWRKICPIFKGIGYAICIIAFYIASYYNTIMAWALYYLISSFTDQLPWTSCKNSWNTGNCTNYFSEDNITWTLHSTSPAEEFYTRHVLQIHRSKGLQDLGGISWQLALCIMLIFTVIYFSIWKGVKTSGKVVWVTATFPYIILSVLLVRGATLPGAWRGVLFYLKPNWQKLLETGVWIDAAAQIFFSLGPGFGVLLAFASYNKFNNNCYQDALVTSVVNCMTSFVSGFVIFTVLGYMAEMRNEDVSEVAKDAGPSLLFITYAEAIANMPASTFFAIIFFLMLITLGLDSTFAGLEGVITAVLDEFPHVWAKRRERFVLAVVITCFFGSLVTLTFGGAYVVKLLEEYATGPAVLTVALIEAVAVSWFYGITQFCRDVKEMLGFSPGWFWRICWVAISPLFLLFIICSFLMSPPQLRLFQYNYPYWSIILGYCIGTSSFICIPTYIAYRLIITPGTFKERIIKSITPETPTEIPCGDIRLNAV

| Compound | D2 [%] [1] | D3 [%] [2] | 5-HT1A [%] [3] | 5-HT2A [%] (5-HT2A receptor) | 5-HT6 [%] (5-HT6 receptor) | 5-HT7 [%] (5-HT7 receptor) | α1 [%] [4] | SERT [%] [5] | inhibition at 1 µM [1] | inhibition at 1 µM [2] | inhibition at 1 µM [3] | inhibition at 1 µM (5-HT2A receptor) | inhibition at 1 µM (5-HT6 receptor) | inhibition at 1 µM (5-HT7 receptor) | inhibition at 1 µM [5] |
| --- | --- | --- | --- | --- | --- | --- | --- | --- | --- | --- | --- | --- | --- | --- | --- |
| O=S(=O)(NC1CCN(CCOc2cccc3c2OCCO3)C1)c1ccccc1 (stereo not shown) [Compound 96, N-[1-[2-(2,3-Dihydro-1,4-benzodioxan-8-yloxy)ethyl]pyrrolidin-3-yl]-benzenesulphonamide] | 46% | 56% | 92% | 93% | 5% | 98% | 60% | 11% |  |  |  |  |  |  |  |
| O=S(=O)(NCC1CN(CCOc2cccc3c2OCCO3)C1)c1ccsc1 [Compound 191, N-[[1-[2-(2,3-Dihydro-1,4-benzodioxin-5-yloxy)ethyl]azetidin-3-yl]methyl]-thiophene-3-sulphonamide] |  |  |  |  |  |  | 54% |  | 7% | 25% | 98% | 42% | 5% | 93% | 32% |
| O=S(=O)(NC1CCN(CCCc2noc3cc(F)ccc23)C1)c1cccc(C(F)(F)F)c1 (stereo not shown) [Compound 15, N-[1-[3-(6-Fluoro-1,2-benzoxazol-3-yl)propyl]pyrrolidin-3-yl]-3-(trifluoromethyl)benzenesulphonamide] |  |  |  |  |  |  | 89% |  | 75% | 14% | 18% | 57% | 83% | 48% | -7% |
| O=S(=O)(NCC1CCN(CCOc2cccc3[nH]ccc23)CC1)c1ccc2ccccc2c1 [Compound 67, N-[[1-[2-(1H-Indol-4-yloxy)ethyl]-4-piperidine]methyl]naphthalene-2-sulphonamide] | 57% | 94% | 76% | 80% | 87% | 79% | 91% | 38% |  |  |  |  |  |  |  |
| Cn1ccc2cc(S(=O)(=O)NCC3CCN(CCOc4cccc5ccccc45)C3)ccc21 (stereo not shown) [Compound 274, 1-Methyl-N-[[1-[2-(1-naphthyloxy)ethyl]pyrrolidin-3-yl]methyl]indole-5-sulphonamide] |  |  |  |  |  |  | 41% |  | 62% | 81% | 77% | 89% | 97% | 86% | 109% |
| O=S(=O)(NCC1CN(CCOc2cccc3ccccc23)C1)c1ccc(F)c(F)c1 [Compound 173, 3,4-Difluoro-N-[[1-[2-(1-naphthyloxy)ethyl]azetidin-3-yl]methyl]-benzenesulphonamide] |  |  |  |  |  |  | 56% |  | 59% | 99% | 83% | 73% | 91% | 105% | 50% |
| Cn1ccc2c(S(=O)(=O)NCC3CCN(CCCc4noc5cc(F)ccc45)C3)cccc21 (stereo not shown) [Compound 259, N-[[1-[3-(6-Fluoro-1,2-benzoxazol-3-yl)propyl]pyrrolidin-3-yl]methyl]-1-methyl-indole-4-sulphonamide] |  |  |  |  |  |  |  |  | 84% | 61% | 42% | 100% | 92% | 91% | -5% |
| O=S(=O)(NCC1CN(CCCc2noc3cc(F)ccc23)C1)c1ccc(Cl)cc1 [Compound 136, 4-Chloro-N-[[1-[3-(6-fluoro-1,2-benzoxazol-3-yl)propyl]azetidin-3-yl]methyl]benzenesulphonamide] |  |  |  |  |  |  |  |  | 62% | 57% | 35% | 82% | 72% | 80% | 9% |
| O=S(=O)(NCC1CCN(CCCc2noc3cc(F)ccc23)C1)c1cccc(Cl)c1 (stereo not shown) [Compound 243, 3-Chloro-N-[[1-[3-(6-fluoro-1,2-benzoxazol-3-yl)propyl]pyrrolidin-3-yl]methyl]benzenesulphonamide] |  |  |  |  |  |  |  |  | 14% | 47% | 21% | 90% | 75% | 89% | 7% |
| O=S(=O)(NCC1CN(CCCc2noc3cc(F)ccc23)C1)c1ccc(Cl)s1 [Compound 155, 5-Chloro-N-[[1-[3-(6-fluoro-1,2-benzoxazol-3-yl)propyl]azetidin-3-yl]methyl]thiophene-2-sulphonamide] |  |  |  |  |  |  |  |  | 61% | 68% | 42% | 89% | 62% | 82% | -12% |
| Cc1cccc(S(=O)(=O)NCC2CN(CCCc3noc4cc(F)ccc34)C2)c1 [Compound 142, N-[[1-[3-(6-Fluoro-1,2-benzoxazol-3-yl)propyl]azetidin-3-yl]methyl]-3-methyl-benzenesulphonamide] |  |  |  |  |  |  |  |  | 58% | 45% | 29% | 77% | 37% | 87% | -4% |
| 3-tert-Butyl-N-[[1-[3-(6-fluoro-1,2-benzoxazol-3-yl)propyl]pyrrolidin-3-yl]methyl]benzenesulphonamide [Compound 249] | 4% | 36% | 23% | 79% | 58% | 87% |  | 28% |  |  |  |  |  |  |  |
| O=S(=O)(NCC1CN(CCCc2noc3cc(F)ccc23)C1)c1cccc(Cl)c1 [Compound 137, 3-Chloro-N-[[1-[3-(6-fluoro-1,2-benzoxazol-3-yl)propyl]azetidin-3-yl]methyl]benzenesulphonamide] |  |  |  |  |  |  |  |  | 76% | 50% | 14% | 62% | 14% | 82% | -5% |
